Reference: PMC8699473, “An Easily Expandable Multi-Drug LC-MS Assay for the Simultaneous Quantification of 57 Oral Antitumor Drugs in Human Plasma” (Cancers, 2021)

Conditions: human

Cc1ccc(C(=O)Nc2ccc(CN3CCN(C)CC3)c(C(F)(F)F)c2)cc1C#Cc1cnc2cccnn12 [Ponatinib]
Long-term stability, 1 month, -20°C Accuracy [%] (both): 96.0% | Long-term stability, 1 month, -80°C Accuracy [%] (both): 92.6% | Long-term stability, 2 month, -20°C Accuracy [%] (both): 87.7% | Long-term stability, 2 month, -80°C Accuracy [%] (both): 99.1% | Long-term stability, 3 month, -20°C Accuracy [%] (both): 91.3% | Long-term stability, 3 month, -80°C Accuracy [%] (both): 96.8% | Long-term stability, 6 weeks, 4°C, without daylight Accuracy [%]: 83.5%
